Data from ChEMBL document CHEMBL1145887, “Large dimeric ligands with favorable pharmacokinetic properties and peroxisome proliferator-activated receptor agonist activity in vitro and in vivo” (J Med Chem, 2003).

What was measured:
[1] = Partition coefficient (logP); format: physicochemical; conditions: octanol/water
Mus musculus [2] = experiment: In vivo insulin effect in db/db mice after oral treatment; format: functional
Mus musculus [3] = experiment: In vivo nonfasting blood glucose in db/db mice after oral treatment; format: functional
Mus musculus [4] = experiment: In vivo nonfasting triglyceride in db/db mice after oral treatment; format: functional
Mus musculus [5] = species on record: Mus musculus; experiment: Area under blood glucose time curve after oral glucose test in mice; format: functional
[6] = biological target: T1, Peroxisome proliferator-activated receptor alpha (Rattus norvegicus, UniProt P37230); experiment: (§1) In vitro transactivation of rat Peroxisome proliferator activated receptor alpha
T1 sequence (P37230 whole entry): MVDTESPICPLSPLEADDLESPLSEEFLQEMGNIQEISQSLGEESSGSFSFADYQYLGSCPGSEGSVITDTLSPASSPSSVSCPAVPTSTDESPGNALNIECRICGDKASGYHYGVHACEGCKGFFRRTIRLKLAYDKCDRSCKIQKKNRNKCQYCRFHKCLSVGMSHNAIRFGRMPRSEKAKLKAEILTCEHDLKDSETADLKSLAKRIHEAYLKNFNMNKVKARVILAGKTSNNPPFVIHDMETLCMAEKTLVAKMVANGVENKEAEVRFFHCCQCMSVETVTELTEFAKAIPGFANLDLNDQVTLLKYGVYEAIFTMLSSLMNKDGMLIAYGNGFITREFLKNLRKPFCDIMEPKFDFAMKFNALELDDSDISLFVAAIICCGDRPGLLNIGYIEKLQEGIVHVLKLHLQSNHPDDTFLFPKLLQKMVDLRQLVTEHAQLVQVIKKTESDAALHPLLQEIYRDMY

[7] = biological target: T2, Peroxisome proliferator-activated receptor alpha (Rattus norvegicus) (UniProt P37230); experiment: as §1; parameters: concentration or dose not given beside the values
T2 sequence (whole entry): T1 sequence (P37230 whole entry)

[8] = biological target: T3, Peroxisome proliferator-activated receptor alpha (Homo sapiens, UniProt Q07869); experiment: (§2) In vitro transactivation of human Peroxisome proliferator activated receptor alpha (hPPARalpha)
T3 sequence (Q07869 whole entry): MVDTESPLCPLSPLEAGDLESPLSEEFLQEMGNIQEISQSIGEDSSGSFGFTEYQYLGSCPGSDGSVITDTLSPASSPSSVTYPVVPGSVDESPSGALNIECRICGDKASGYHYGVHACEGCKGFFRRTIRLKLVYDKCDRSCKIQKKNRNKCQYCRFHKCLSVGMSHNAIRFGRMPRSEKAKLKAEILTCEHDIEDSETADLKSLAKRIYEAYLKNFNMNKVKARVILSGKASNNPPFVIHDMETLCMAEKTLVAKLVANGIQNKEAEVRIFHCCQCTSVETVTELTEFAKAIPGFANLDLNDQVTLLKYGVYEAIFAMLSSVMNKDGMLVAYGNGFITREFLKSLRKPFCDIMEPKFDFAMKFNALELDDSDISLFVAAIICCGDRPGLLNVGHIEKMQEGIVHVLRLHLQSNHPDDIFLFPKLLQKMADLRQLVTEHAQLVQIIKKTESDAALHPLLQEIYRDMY

[9] = biological target: T4, Peroxisome proliferator-activated receptor alpha (Homo sapiens) (UniProt Q07869); experiment: as §2; parameters: concentration or dose not given beside the values
T4 sequence (whole entry): T3 sequence (Q07869 whole entry)

[10] = Clearance in rat; format: ADME, organism-based; conditions: in vivo
[11] = Oral bioavailability in rat; format: ADME, organism-based; conditions: in vivo
[12] = Area under the plasma concentration-time curve in rat after peroral administration; format: ADME, organism-based; conditions: po
[13] = Volume of distribution during steady state in rat; conditions: in vivo
[14] = Maximum plasma concentration in rat after peroral administration; format: ADME, organism-based; parameters: route oral; conditions: po
[15] = Oral half-life in rat after peroral administration; format: ADME, organism-based; conditions: in vivo
[16] = biological target: T5, Peroxisome proliferator-activated receptor delta (Homo sapiens, UniProt Q03181); experiment: In vitro transactivation of human Peroxisome proliferator activated receptor delta (hPPARdelta)
T5 sequence (Q03181 whole entry): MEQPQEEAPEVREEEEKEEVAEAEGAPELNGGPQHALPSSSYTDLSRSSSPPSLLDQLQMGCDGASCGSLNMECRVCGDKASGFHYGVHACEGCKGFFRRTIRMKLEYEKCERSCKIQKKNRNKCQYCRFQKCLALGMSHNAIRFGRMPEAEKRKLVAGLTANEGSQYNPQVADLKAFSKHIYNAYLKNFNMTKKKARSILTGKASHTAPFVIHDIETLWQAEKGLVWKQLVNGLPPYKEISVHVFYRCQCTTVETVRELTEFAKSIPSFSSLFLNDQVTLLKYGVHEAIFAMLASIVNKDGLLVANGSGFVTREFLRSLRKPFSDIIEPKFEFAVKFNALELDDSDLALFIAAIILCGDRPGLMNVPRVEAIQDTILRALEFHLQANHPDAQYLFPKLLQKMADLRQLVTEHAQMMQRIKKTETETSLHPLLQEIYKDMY

[17] = biological target: T6, Peroxisome proliferator-activated receptor gamma (Homo sapiens, UniProt P37231)
T6 sequence (P37231 whole entry): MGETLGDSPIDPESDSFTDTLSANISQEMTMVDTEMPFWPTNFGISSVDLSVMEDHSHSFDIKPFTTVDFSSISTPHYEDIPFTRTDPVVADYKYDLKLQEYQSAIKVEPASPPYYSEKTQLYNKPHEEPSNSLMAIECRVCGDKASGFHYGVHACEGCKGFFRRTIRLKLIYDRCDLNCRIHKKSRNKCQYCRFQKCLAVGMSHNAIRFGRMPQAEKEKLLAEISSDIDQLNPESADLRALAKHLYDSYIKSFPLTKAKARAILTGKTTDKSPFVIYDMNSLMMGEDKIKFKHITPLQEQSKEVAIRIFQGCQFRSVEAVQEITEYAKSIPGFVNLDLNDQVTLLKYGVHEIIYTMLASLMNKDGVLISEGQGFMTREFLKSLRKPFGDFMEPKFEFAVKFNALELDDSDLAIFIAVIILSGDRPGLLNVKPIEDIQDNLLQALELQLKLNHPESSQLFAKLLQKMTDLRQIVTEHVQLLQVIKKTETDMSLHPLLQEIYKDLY
Description: In vitro transactivation of human Peroxisome proliferator activated receptor gamma

Row | SMILES | logP [1] | ED50 (Mus musculus [2]) | Max reduction (Mus musculus [2]) | ED50 (Mus musculus [3]) | Max reduction (Mus musculus [3]) | ED50 (Mus musculus [4]) | Max reduction (Mus musculus [4]) | Max reduction (Mus musculus [5]) | ED50 (Mus musculus [5]; Mus musculus, Blood, po) | EC50 [6] | Fold activation [7] | EC50 [8] | Fold activation [9] | clearance [10] | bioavailability [11] | AUC [12] | Vd [13] | half-life [15] | EC50 [16] | EC50 [17] | further results
1 | CC(C)(Oc1ccc(C(=O)c2ccc(Cl)cc2)cc1)C(=O)O [FENOFIBRIC ACID] | 4.27 | 191 mg/kg | 32% | > 300 mg/kg | 10% | > 300 mg/kg | 20% | 0% | > 300 mg/kg | 131 µM | 331% | 32.1 µM | 265% | – | – | – | – | – | – | – | –
2 | CCO[C@@H](Cc1ccc(OC/C=C/C#Cc2ccccc2)cc1)C(=O)O | 3.87 | 1 mg/kg | 92% | 0.4 mg/kg | 54% | 0.4 mg/kg | 57% | 45% | 1.2 mg/kg | 0.7 µM | 112% | 0.067 µM | 123% | 0.54 mL/min/kg | 89% | 62200 ng·h/mL | 0.14 L/kg | 2.03 h | 6.9 µM | 1.13 µM | Cmax [14]: 4570 ng/mL
3 | CCc1ccc(CCOc2ccc(CC3SC(=O)NC3=O)cc2)nc1 (stereo not drawn) [PIOGLITAZONE] | – | 15 mg/kg | 54% | 2.6 mg/kg | 53% | 27 mg/kg | 21% | 39% | 12 mg/kg | – | – | – | – | – | – | – | – | – | – | – | –
4 | CCO[C@@H](Cc1ccc(OC/C=C/C#Cc2cccc(C#C/C=C/COc3ccc(C[C@H](OCC)C(=O)O)cc3)c2)cc1)C(=O)O | 4.81 | 0.6 mg/kg | 86% | 0.9 mg/kg | 54% | 0.1 mg/kg | 46% | 60% | 0.5 mg/kg | 4.6 µM | 109% | 0.3 µM | 193% | 0.23 mL/min/kg | 63% | 84900 ng·h/mL | 0.16 L/kg | 6.7 h | 10.5 µM | 1.65 µM | Cmax [14]: 7210 ng/mL
5 | Cc1cccc(Nc2cc(Cl)nc(SCC(=O)O)n2)c1C [PIRINIXIC ACID] | – | 15 mg/kg | 45% | 2.2 mg/kg | 36% | 3 mg/kg | 32% | 13% | – | 2.1 µM | – | – | – | – | – | – | – | – | – | – | ED50 (Mus musculus [5]): 4.7 mg/kg
6 | CCO[C@@H](Cc1ccc(OC/C=C(\C)c2ccc(-c3ccccc3)cc2)cc1)C(=O)O | 4.5 | 0.2 mg/kg | 95% | 0.2 mg/kg | 53% | 0.3 mg/kg | 65% | 50% | 0.3 mg/kg | 11.1 µM | 166% | 0.49 µM | 158% | 0.49 mL/min/kg | 100% | 116000 ng·h/mL | 0.16 L/kg | 3.55 h | 9.55 µM | 2.03 µM | Cmax [14]: 9250 ng/mL
7 | CCO[C@@H](Cc1ccc(OC/C=C/C#Cc2ccc(C#C/C=C/COc3ccc(C[C@H](OCC)C(=O)O)cc3)cc2)cc1)C(=O)O | 4.81 | 0.4 mg/kg | 90% | 0.4 mg/kg | 55% | 0.2 mg/kg | 56% | 52% | 0.9 mg/kg | 6.3 µM | 210% | 0.71 µM | 173% | 0.1 mL/min/kg | 100% | 111000 ng·h/mL | 0.04 L/kg | > 6 h | 2.17 µM | 0.11 µM | Cmax [14]: 27800 ng/mL
8 | CCO[C@@H](Cc1ccc(OC/C=C(\C)c2ccc(-c3ccc(/C(C)=C/COc4ccc(C[C@H](OCC)C(=O)O)cc4)cc3)cc2)cc1)C(=O)O | 4.89 | 0.2 mg/kg | 91% | 0.2 mg/kg | 40% | 0.3 mg/kg | 60% | 53% | 0.4 mg/kg | 19.9 µM | 203% | 6.69 µM | 247% | 0.04 mL/min/kg | 58% | 9790 ng·h/mL | 0.08 L/kg | > 6.67 h | 2.08 µM | 0.32 µM | Cmax [14]: 23200 ng/mL
9 | CCCCC[C@H](O)/C=C/[C@@H]1[C@H]2C/C(=C\CCCC(=O)O)C[C@H]2C[C@H]1O [CARBACYCLIN] | – | – | – | – | – | – | – | – | – | – | 15% | 0.96 µM | 79% | – | – | – | – | – | 1.88 µM | 7.91 µM | –
10 | CN(CCOc1ccc(CC2SC(=O)NC2=O)cc1)c1ccccn1 (stereo not drawn) [ROSIGLITAZONE] | 1.91 | 0.1 mg/kg | 43% | 0.9 mg/kg | 35% | 0.1 mg/kg | 58% | 16% | 0.8 mg/kg | – | – | – | – | 2.1 mL/min/kg | 83% | 14600 ng·h/mL | – | 3.03 h | – | – | –
